{"source": "patent US12325701B2", "about": "“YKL-40 inhibitors and their therapeutic” (Molecure S.A., priority 2022, dated 2025)", "note": "Where a name gives a salt, the structure may show the parent alone.", "data": [{"target": "YKL-40 (YKL-40-histag, chitin binding site) (Homo sapiens (Human), UniProt P36222)", "sequence (P36222 22-383)": "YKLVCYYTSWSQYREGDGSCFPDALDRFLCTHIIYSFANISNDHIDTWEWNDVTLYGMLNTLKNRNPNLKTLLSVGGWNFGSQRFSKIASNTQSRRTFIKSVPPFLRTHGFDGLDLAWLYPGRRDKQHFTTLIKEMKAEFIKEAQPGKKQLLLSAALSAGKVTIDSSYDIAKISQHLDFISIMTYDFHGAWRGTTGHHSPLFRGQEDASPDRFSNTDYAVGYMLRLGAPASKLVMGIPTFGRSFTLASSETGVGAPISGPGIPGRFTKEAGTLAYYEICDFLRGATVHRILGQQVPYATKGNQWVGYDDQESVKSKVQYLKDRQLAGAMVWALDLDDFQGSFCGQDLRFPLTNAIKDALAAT", "assay": "YKL-40:4 assay, competitive chitin binding site AlphaScreen", "conditions": "not given", "units": {"IC50": "µM"}, "values": [{"smiles": "C[C@H]1CN(C2CCN(c3ncccc3C(N)=O)CC2)[C@@H](Cc2ccc(Cl)cc2)CO1", "note": "[Compound 114, 2-(4-((2S,5S)-5-(4-chlorobenzyl)-2-methylmorpholino)piperidin-1-yl)nicotinamide 2,2,2-trifluoroacetate]", "IC50": "> 10"}, {"smiles": "Cc1nsc(N2CCC(N3C[C@H](C)OC[C@@H]3Cc3ccc(Cl)cc3)CC2)n1", "note": "[Compound 180, (2S,5S)-5-(4-chlorobenzyl)-2-methyl-4-(1-(3-methyl-1,2,4-thiadiazol-5-yl)piperidin-4-yl)morpholine 2,2,2-trifluoroacetate]", "IC50": "> 10"}, {"smiles": "C[C@H]1CN(C2CCN(c3ncc(F)cc3F)CC2)[C@@H](Cc2ccc(Cl)cc2)CO1", "note": "[Example 25, (2S,5S)-5-(4-chlorobenzyl)-4-(1-(3,5-difluoropyridin-2-yl)piperidin-4-yl)-2-methylmorpholine 2,2,2-trifluoroacetate]", "IC50": "> 10"}, {"smiles": "C[C@H]1CN(C2CCN(c3ccncc3)CC2)[C@@H](Cc2ccc(Cl)cc2)CO1", "note": "[Example 28, (2S,5S)-5-(4-chlorobenzyl)-2-methyl-4-(1-(pyridin-4-yl)piperidin-4-yl)morpholine 2,2,2-trifluoroacetate]", "IC50": "> 10"}, {"smiles": "C[C@H]1CN(C2CCN(c3c(F)cccc3C#N)CC2)[C@@H](Cc2ccc(Cl)cc2)CO1", "note": "[Compound 118, 2-(4-((2S,5S)-5-(4-chlorobenzyl)-2-methylmorpholino)piperidin-1-yl)-3-fluorobenzonitrile 2,2,2-trifluoroacetate]", "IC50": "> 10"}, {"smiles": "C[C@H]1CN(C2CCN(c3cccnc3)CC2)[C@@H](Cc2ccc(Cl)cc2)CO1", "note": "[Example 27, (2S,5S)-5-(4-chlorobenzyl)-2-methyl-4-(1-(pyridin-3-yl)piperidin-4-yl)morpholine 2,2,2-trifluoroacetate]", "IC50": "> 10"}, {"smiles": "Cc1noc(N2CCC(N3C[C@H](C)OC[C@@H]3Cc3ccc(Cl)cc3)CC2)n1", "note": "[Compound 188, (2S,5S)-5-(4-chlorobenzyl)-2-methyl-4-(1-(3-methyl-1,2,4-oxadiazol-5-yl)piperidin-4-yl)morpholine 2,2,2-trifluoroacetate]", "IC50": "> 10"}, {"smiles": "C[C@H]1CN(C2CCN(c3cc(F)ncn3)CC2)[C@@H](Cc2ccc(Cl)cc2)CO1", "note": "[Example 24, (2S,5S)-5-(4-chlorobenzyl)-4-(1-(6-fluoropyrimidin-4-yl)piperidin-4-yl)-2-methylmorpholine 2,2,2-trifluoroacetate]", "IC50": "> 10"}, {"smiles": "C[C@H]1CN(C2CCN(c3noc(=O)[nH]3)CC2)[C@@H](Cc2ccc(Cl)cc2)CO1", "note": "[Compound 165, 3-(4-((2S,5S)-5-(4-chlorobenzyl)-2-methylmorpholino)piperidin-1-yl)-1,2,4-oxadiazol-5(4H)-one 2,2,2-trifluoroacetate]", "IC50": "> 10"}, {"smiles": "C[C@H]1CN(C2CCN(c3cccc(F)c3)CC2)[C@@H](Cc2ccc(Cl)cc2)CO1", "note": "[Compound 127, (2S,5S)-5-(4-chlorobenzyl)-4-(1-(3-fluorophenyl)piperidin-4-yl)-2-methylmorpholine 2,2,2-trifluoroacetate]", "IC50": "> 10"}, {"smiles": "C[C@H]1CN(C2CCN(c3ncnc(O)n3)CC2)[C@@H](Cc2ccc(Cl)cc2)CO1", "note": "[Compound 170]", "IC50": "> 10"}]}, {"target": "YKL-40 (YKL-40-histag, chitin binding site) (Homo sapiens (Human), UniProt P36222)", "assay": "YKL-40:4 assay, competitive chitin binding site AlphaScreen", "conditions": "competition with biotinylated compound 4, 20 nM; YKL-40-histag 2.5 nM; read-out: YKL-40:4, IC50/Kd (IC50 range)", "units": {"IC50": "µM"}, "values": [{"smiles": "COC(=O)c1ccnc(N2CCC(N3C[C@H](C)OC[C@@H]3Cc3ccc(Cl)cc3)CC2)c1F", "note": "[Compound 122, methyl 2-(4-((2S,5S)-5-(4-chlorobenzyl)-2-methylmorpholino)piperidin-1-yl)-3-fluoroisonicotinate]", "IC50": "> 10"}, {"smiles": "O=C1COC[C@H](Cc2ccc(Cl)cc2)N1C1CCN(c2ccccn2)CC1", "note": "[Compound 147, (S)-5-(4-chlorobenzyl)-4-(1-(pyridin-2-yl)piperidin-4-yl)morpholin-3-one hydrochloride]", "IC50": "> 10"}, {"smiles": "C[C@H]1CN(C2CCN(c3cnc(C(F)(F)F)cn3)CC2)[C@@H](Cc2ccc(Cl)cc2)CO1", "note": "[Compound 158, (2S,5S)-5-(4-chlorobenzyl)-2-methyl-4-(1-(5-(trifluoromethyl)pyrazin-2-yl)piperidin-4-yl)morpholine hydrochloride]", "IC50": "> 10"}]}]}
